Entries after “also recorded” stand apart in the source; their conditions may differ.

This note sets out measurements from patent EP2518139A1, “Use of indirubin derivatives for producing pluripotent stem cells” (Universitätsklinikum Jena, priority 2011, dated 2012).

One experiment concerns MAPKs (JNK, P38, Erk1/2). Nature of the experiment: Immunoblot of phosphorylated MAPKs in HeLa cells. It counts as cell-based, human. The note with it: BMP2 (100ng/mL). On the procedure: Western blot:: Cell extracts were homogenized in Urea-Lysis buffer (1mM EDTA,0.5% Triton X-100), 5mM NaF, 6M Urea, 1mM Na3VO4, 10µg/mL Pepstatin, 100µM PMSF and 3µg/mL Aprotinin in PBS). Enhanced chemiluminescence (ECL) Western blot analysis was performed. 20-40µg of total protein was resolved on 10% SDS-PAGE gels and immunoblotted with specific antibodies. Primary antibodies were incubated at a 1:1,000 dilution in TBS (pH 7.5) with 0.1% Tween-20 and 5% BSA/nonfat milk with gentle agitation overnight at 4°C. The proper secondary antibodies were incubated in TBS (pH 7.5) with 5% BSA/nonfat milk and 0.1 % Tween-20 at a 1:5,000 dilution for 1 h at room temperature.
To assess the effect of E738 on Wnt and Stat3 pathway in mammalian cellular context, HeLa cells were treated with E738 at increasing concentrations for 1 h. Here E804 was used as reference because of its well-known inhibition of Stat3 and Wnt. The antibodies of p-Stat3 and non-phosphorylation-ß-Catenin (NP-ß-Catenin, Ser33/37/Thr41), which can provide a convenient positive band if GSK3B is inhibited, were recruited to substantiated our in vitro results. […] With the stimulation of FCS, we also observed the similar regulation on Stat3 and MAPKs pathways depicted in Fig. 8. […]

For a further experiment, the system named is HFF. Nature of the experiment: iPS-Colony formation and Alkaline phosphatases staining in HFF. The note with it: E738 (0.5µM) 8 days, Alkaline phosphatases staining after 14 days E738 (1µM). It counts as cell-based, human. On the procedure: Cell culture: HeLa and Hek293T were cultured in DMEM (PAA) containing 10% FCS (PAA) and 1% PS (PAA). HFF (human foreskin fibroblasts) were cultured in DMEM containing 15% FCS and 1%PS. Mouse embryonic fibroblasts were cultured in DMEM containing 10% NCS (LifeTechnologies) and 1% PS. The cells were maintained under 5% CO2 at 37°C in a humidified atmosphere. The cells were treated with various compounds as indicated in context. The images were taken at indicated time points using a Keyence digital-microskop BZ-800.
iPS-Colony formation and Alkaline phosphatases staining in HFF: 10^5 cells/well HFF at passage 4 were seeded in a 12-well plate in 15% FCS. Next day, the cells were treated with indicated concentrations of E738 without change of medium for indicated times. After the appearance of morphologic transition and stem cell like colony formation, alkaline phosphatase staining was performed using StemTAG Alkaline phosphatase staining kit (Biocat, Germany) according to the manufacturers protocol.

Take `COc1ccc2c(c1)C(=C1Nc3ccccc3C1=NOCC(O)CO)C(=O)N2` (stereo not drawn) [E738]: the “phosphorylations of MAPKs (JNK, P38, Erk1/2)” value in the experiment with MAPKs (JNK, P38, Erk1/2) (1 h, increasing concentrations) was “promoted phosphorylations of JNK and P38 at the low concentraions, but not for Erk1/2”. In the experiment with MAPKs (JNK, P38, Erk1/2) (6h after treatment), the “p-JNK, p-P38 and pErk1/2” value is “induced activation of P38; also recorded: clear increases of p-JNK and p-P38 were observed 6h after treatment, but not pErk1/2”. Also, the “formation of ESC-like colony” value with HFF is “induces the formation of ESC-like colony from HFF”.
